Key:
[1] = molecular target: T1, rabbit reticulocyte 15-LO (Oryctolagus cuniculus, UniProt P12530); experiment: Rabbit Reticulocyte 15-LO Assay (h15LO); type: biochemical; settings: for IC50: 2U rabbit reticulocyte 15-LO, 174 μM linoleic acid, 15 minutes at 4° C.; for h15LO, value given as bare %: concentration not given
T1 construct: Fifteen-lipoxygenase was obtained from phenylhydrazine-treated rabbits and purified per the method of Rapoport; from tissue; host or cells: reticulocytes of phenylhydrazine-treated rabbits
T1 sequence (P12530 1-663): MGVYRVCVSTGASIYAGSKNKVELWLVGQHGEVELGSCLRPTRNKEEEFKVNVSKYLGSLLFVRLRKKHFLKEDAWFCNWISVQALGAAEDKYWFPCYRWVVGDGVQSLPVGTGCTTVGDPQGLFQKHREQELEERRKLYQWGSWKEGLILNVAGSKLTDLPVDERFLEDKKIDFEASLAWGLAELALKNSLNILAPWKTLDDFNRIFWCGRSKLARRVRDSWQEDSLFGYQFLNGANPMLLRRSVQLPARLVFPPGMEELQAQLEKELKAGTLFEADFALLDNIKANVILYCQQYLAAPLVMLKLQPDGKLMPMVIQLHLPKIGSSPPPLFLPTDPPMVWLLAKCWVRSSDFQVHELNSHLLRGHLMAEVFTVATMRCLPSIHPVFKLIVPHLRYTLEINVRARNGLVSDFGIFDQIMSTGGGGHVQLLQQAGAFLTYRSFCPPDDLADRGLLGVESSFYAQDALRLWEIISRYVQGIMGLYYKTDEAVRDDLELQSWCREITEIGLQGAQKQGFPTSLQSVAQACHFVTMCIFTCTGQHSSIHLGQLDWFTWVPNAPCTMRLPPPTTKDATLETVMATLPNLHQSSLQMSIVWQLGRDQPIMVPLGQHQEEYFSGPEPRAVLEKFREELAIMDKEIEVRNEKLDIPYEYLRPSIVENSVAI
How it was run: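 Purified rabbit reticulocyte 15-LO (2U) incubated with inhibitor and 174 μM linoleic acid in PBS with 0.2% Na cholate for 15 minutes at 4° C. 13-HPODE quantified by peak area against 13-HODE standard curve; % inhibition relative to uninhibited reaction.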

Row | SMILES | melting point | IC50 ([1]; Table 2) [nM] | also measured
1 | COc1ccc(NC(=O)c2ccc(OC)c(NC(=S)Nc3cc(Cl)cc(Cl)c3)c2)cc1 [Example 79, 3-[3-(3,5-Dichlorophenyl)-thioureido]-4-methoxy-N-(4-methoxy-phenyl)-benzamide] | 175 to 182 °C | 127 | –
2 | CCc1ccc(C(=O)Nc2ccc(F)c(F)c2)cc1NC(=S)Nc1cccc(C(F)(F)F)c1 [Example 111, 4-Ethyl-N-(3,4-difluorophenyl)-3-[3-(3-trifluoromethyl-phenyl)-thioureido]-benzamide] | 169 to 170 °C | 79 | –
3 | COc1ccc(C(=O)Nc2ccccc2)cc1NC(=S)Nc1ccccc1 [Example 62, 4-Methoxy-N-phenyl-3-(3-phenyl-thioureido)-benzamide] | 174 to 176 °C | 70 | –
4 | COc1ccc(C(=O)Nc2ccc(C)c(Cl)c2)cc1N [Example 12, 3-Amino-4-methoxy-N-(3-chloro-4-methylphenyl)-benzamide] | 153 to 157 °C | – | IC50 ([1]; Table 1): 73 nM
5 | CSc1ccc(C(=O)Nc2ccccc2)cc1Nc1cccc(C(F)(F)F)c1 [Example 43, 4-Methylsulfanyl-3-(3-trifluoromethyl-phenylamino)-N-phenyl-benzamide] | 169 to 170 °C | 73 | –
6 | COc1ccc(C(=O)Nc2cccc(Cl)c2)cc1N [Example 16, 3-Amino-4-methoxy-N-(3-chlorophenyl)-benzamide] | 144 to 146 °C | – | IC50 ([1]; Table 1): 79 nM
7 | O=C(Nc1ccccc1)c1cccc(Oc2ccccc2)c1 [Example 53, 3-Phenoxy-N-phenyl-benzamide] | 111 to 112 °C | – | inhibition at 10 µM ([1]; 0.25 h, Table 2, @ 10 μM, read-out: h15LO % @ 10 μM): 57%
8 | COc1ccc(C(=O)Nc2cccnc2)cc1NC(=S)Nc1cccc(C(=O)O)c1 [Example 112, 3-{3-[2-Methoxy-5-(pyridin-3-ylcarbamoyl)-phenyl]-thioureido}-benzoic acid] | 191 to 192 °C | 26 | –
9 | CSc1ccc(C(=O)Nc2ccccc2)cc1N [Example 20, 3-Amino-4-methylsulfanyl-N-phenyl-benzamide] | 143 to 145 °C | – | IC50 ([1]; Table 1): 203 nM
10 | COc1ccc(C(=O)Nc2ccccc2)cc1NS(=O)(=O)c1cn(C)cn1 [Example 141, 3-(1-Methyl-1H-imidazole-4-sulfonylamino)-4-methoxy-N-phenyl-benzamide] | 250 to 252 °C | 582 | –
11 | COC(=O)c1cccc(NC(=O)c2ccc(OC)c(N)c2)c1 [Example 149, 3-(3-Amino-4-methoxy-benzoylamino)-benzoic Acid Methyl Ester] | 160 to 162 °C | 330 | –
12 | COc1ccc(C(=O)Nc2cc(C)cc(C)c2)cc1NC(=S)Nc1cccc(C)c1 [Example 103, N-(3,5-Dimethylphenyl)-4-methoxy-3-(3-m-tolyl-thioureido)-benzamide] | 188 to 189 °C | – | –
13 | COc1ccc(C(=O)Nc2ccc(Cl)c(Cl)c2)cc1NS(=O)(=O)c1cc(Cl)cc(Cl)c1 [Example 117, 3-(3,5-Dichloro-benzenesulfonylamino)-4-methoxy-N-(3,4-dichlorophenyl)-benzamide] | > 230 °C (dec.) | – | –
14 | COc1ccc(NC(=O)Nc2ccccc2)cc1N [Example 24, 1-(3-Amino-4-methoxyphenyl)-3-phenyl-urea] | 174 to 175 °C | – | –
15 | Nc1cc(C(=O)Nc2ccccc2)ccc1Cl [Example 13, 3-Amino-4-chloro-N-phenyl-benzamide] | 194 to 197 °C | – | –
16 | Cc1ccc(C(=O)Nc2ccccc2)cc1N [Example 1, 3-Amino-4-methyl-N-phenyl-benzamide] | 149 to 151 °C | – | –
17 | COc1ccc(C(=O)Nc2cccnc2)cc1NC(=S)Nc1ccc(Cl)c(Cl)c1 [Example 100, 3-[3-(3,4-Dichlorophenyl)-thioureido]-4-methoxy-N-pyridin-3-yl-benzamide] | 179 to 180 °C | – | –
18 | COc1ccc(NC(=O)c2ccccc2)cc1Nc1ccccc1 [Example 49, N-[3-(Phenylamino)-4-methoxy-phenyl]-benzamide] | 209 to 210 °C | – | –
19 | COc1ccc(NC(=O)Nc2ccc(Cl)c(Cl)c2)cc1NC(=S)Nc1cc(Cl)cc(Cl)c1 [Example 171, 1-(3,4-Dichloro-phenyl)-3-{3-[3-(3,5-dichloro-phenyl)-thioureido]-4-methoxy-phenyl}-urea] | – | 275 | –

Row | SMILES | melting point | IC50 ([1]; Table 2) [nM] | also measured
20 | CCCCCCCCCCS(=O)(=O)Nc1cc(C(=O)Nc2ccccc2)ccc1OC [Example 179, 3-(Decane-1-sulfonylamino)-4-methoxy-N-phenyl-benzamide] | – | 7 | –
21 | COc1ccc(C(=O)Nc2ccccc2)cc1NCc1ccc(C(C)(C)C)cc1 [Example 232, 3-(4-tert-Butyl-benzylamino)-4-methoxy-N-phenyl-benzamide] | – | – | h15LO, value given as bare % ([1]; Table 2): 80.36%
22 | CCCCCCCCS(=O)(=O)Nc1cc(C(=O)Nc2ccccc2)ccc1OC [Example 178, 4-Methoxy-3-(octane-1-sulfonylamino)-N-phenyl-benzamide] | – | 4 | –
23 | COc1ccc(NC(=O)Nc2ccc(Cl)c(Cl)c2)cc1NC(=S)Nc1ccc(Cl)c([N+](=O)[O-])c1 [Example 175, 1-{3-[3-(4-Chloro-3-nitro-phenyl)-thioureido]-4-methoxy-phenyl}-3-(3,4-dichloro-phenyl)-urea] | – | – | h15LO, value given as bare % ([1]; Table 2): 52%
24 | COc1ccc(NC(=O)c2ccc(Cl)c(Cl)c2)cc1NS(=O)(=O)c1ccc(C)cc1 [Example 197, 3,4-Dichloro-N-[4-methoxy-3-(toluene-4-sulfonylamino)-phenyl]-benzamide] | – | 36 | –
25 | COc1ccc(C(=O)Nc2ccccc2)cc1NC(=S)Nc1ccc(Cl)c(C(F)(F)F)c1 [Example 73, 3-[3-(4-Chloro-3-trifluoromethylphenyl)-thioureido]-4-methoxy-N-phenyl-benzamide] | – | 16 | –
26 | COc1ccc(C(=O)Nc2ccccc2)cc1NCc1ccc(F)c(F)c1 [Example 274, 3-(3,4-Difluoro-benzylamino)-4-methoxy-N-phenyl-benzamide] | – | 391 | –
27 | COc1ccc(NC(=O)c2ccc(F)c(F)c2)cc1NS(=O)(=O)c1cccc(C#N)c1 [Example 205, 3,4-Difluoro-N-[3-(3-cyano-benzenesulfonylamino)-4-methoxy-phenyl]-benzamide] | – | – | h15LO, value given as bare % ([1]; Table 2): 86.96%
28 | CCOC(=O)c1cccc(NC(=O)c2ccc(OC)c(NCc3cccs3)c2)c1 [Example 263, 3-{4-Methoxy-3-[(thiophen-2-ylmethyl)-amino]-benzoylamino}-benzoic Acid Ethyl Ester] | – | – | h15LO, value given as bare % ([1]; Table 2): 53.51%
29 | COc1ccc(S(=O)(=O)Nc2cc(NC(=O)c3ccc(Cl)c(Cl)c3)ccc2OC)cc1 [Example 196, 3,4-Dichloro-N-[4-methoxy-3-(4-methoxy-benzenesulfonylamino)-phenyl]-benzamide] | – | 33 | –
30 | CCCOc1ccc(CNc2cc(C(=O)Nc3ccccc3)ccc2OC)cc1 [Example 235, 4-Methoxy-3-(4-propoxy-benzylamino)-N-phenyl-benzamide] | – | – | h15LO, value given as bare % ([1]; Table 2): 67.26%
31 | COC(=O)c1cccc(NC(=S)Nc2cc(C(=O)Nc3ccccc3)ccc2OC)c1 [Example 161, 3-[3-(2-Methoxy-5-phenylcarbamoyl-phenyl)-thioureido]-benzoic Acid Methyl Ester] | – | 22 | –
32 | Nc1cc(NC(=O)c2ccc(Cl)c(Cl)c2)ccc1F [Example 22, 3,4-Dichloro-N-(3-amino-4-fluorophenyl)-benzamide] | 151 to 153 °C | – | –
33 | COc1ccc(C(=O)Nc2ccccc2)cc1NCc1cccc(C(=O)O)c1 [Example 241, 3-[(2-Methoxy-5-phenylcarbamoyl-phenylamino)-methyl]-benzoic Acid] | – | – | h15LO, value given as bare % ([1]; Table 2): 56.33%
34 | COc1ccc(NC(=O)c2ccc(Cl)c(Cl)c2)cc1NCc1cccc(F)c1 [Example 244, 3,4-Dichloro-N-[3-(3-fluoro-benzylamino)-4-methoxy-phenyl]-benzamide] | – | 86 | –
35 | COc1ccc(C(=O)Nc2ccc(F)cc2)cc1NS(=O)(=O)c1ccc(C#N)cc1 [Example 193, 3-(4-Cyano-benzenesulfonylamino)-4-methoxy-N-(4-fluoro-phenyl)-benzamide] | – | – | h15LO, value given as bare % ([1]; Table 2): 94.51%
36 | COc1ccc(C(=O)Nc2ccccc2)cc1NCc1cc(C)cc(C)c1 [Example 218, 4-Methoxy-3-(3,5-dimethyl-benzylamino)-N-phenyl-benzamide] | – | 161 | –
37 | COc1ccc(C(=O)Nc2ccccc2)cc1NCc1ccccc1F [Example 270, 4-Methoxy-3-(2-fluoro-benzylamino)-N-phenyl-benzamide] | – | 241 | –
38 | COc1ccc(C(=O)Nc2ccc(F)c(F)c2)cc1NCc1ccccc1 [Example 227, 3-Benzylamino-4-methoxy-N-(3,4-difluoro-phenyl)-benzamide] | – | – | h15LO, value given as bare % ([1]; Table 2): 95.74%
